Reference: patent US7507760B2, “N-type calcium channel blockers” (Neuromed Pharmaceuticals Ltd., priority 2004, dated 2009)
pIC50: −log10 of the molar value. Read-outs that look alike come from different tables or passages of the source.

How the values were obtained:
[1] = system: rat formalin model (paw flinches); test: Formalin-induced pain model; format: in vivo; details: 30 mg/kg IP, 10 minutes prior to formalin, saline control=100%
Protocol: […] The compounds were reconstituted to stock solutions of approximately 10 mg/ml in propylene glycol. Eight Holtsman male rats of 275-375 g size were randomly selected per test article.
The following study groups in Table 6 were used, with test article, vehicle control (propylene glycol) and saline delivered intraperitoneally (IP):
Prior to initiation of drug delivery, baseline behavioral and testing data were taken.
On the morning of testing, a small metal band (0.5 g) was loosely placed around the right hind paw. The rat was placed in a cylindrical Plexiglas chamber for adaptation a minimum of 30 minutes. Test Article or Vehicle Control Article was administered 10 minutes prior to formalin injection (50 μl of 5% formalin) into the dorsal surface of the right hindpaw of the rat. The animal was then placed into the chamber of the automated formalin apparatus where movement of the formalin injected paw was monitored and the number of paw flinches tallied by minute over the next 60 minutes (Malmberg, A. B., supra).
Results are presented as Maximum Possible Effect±SEM, where saline control=100% (Table 7)

[2] = target: T1, rat brain N-type calcium channel subunits (α1B+α2δ+β1b cDNA subunits) (Rattus norvegicus, UniProt Q02294); test: N-type calcium channel block, whole cell patch clamp in HEK 293 cells; format: cell-based; details: holding potential −80 mV to +10 mV, 5 mM BaCl2
T1 construct: expressed in transfected cells; host or cells: HEK 293
T1 sequence (Q02294 whole entry): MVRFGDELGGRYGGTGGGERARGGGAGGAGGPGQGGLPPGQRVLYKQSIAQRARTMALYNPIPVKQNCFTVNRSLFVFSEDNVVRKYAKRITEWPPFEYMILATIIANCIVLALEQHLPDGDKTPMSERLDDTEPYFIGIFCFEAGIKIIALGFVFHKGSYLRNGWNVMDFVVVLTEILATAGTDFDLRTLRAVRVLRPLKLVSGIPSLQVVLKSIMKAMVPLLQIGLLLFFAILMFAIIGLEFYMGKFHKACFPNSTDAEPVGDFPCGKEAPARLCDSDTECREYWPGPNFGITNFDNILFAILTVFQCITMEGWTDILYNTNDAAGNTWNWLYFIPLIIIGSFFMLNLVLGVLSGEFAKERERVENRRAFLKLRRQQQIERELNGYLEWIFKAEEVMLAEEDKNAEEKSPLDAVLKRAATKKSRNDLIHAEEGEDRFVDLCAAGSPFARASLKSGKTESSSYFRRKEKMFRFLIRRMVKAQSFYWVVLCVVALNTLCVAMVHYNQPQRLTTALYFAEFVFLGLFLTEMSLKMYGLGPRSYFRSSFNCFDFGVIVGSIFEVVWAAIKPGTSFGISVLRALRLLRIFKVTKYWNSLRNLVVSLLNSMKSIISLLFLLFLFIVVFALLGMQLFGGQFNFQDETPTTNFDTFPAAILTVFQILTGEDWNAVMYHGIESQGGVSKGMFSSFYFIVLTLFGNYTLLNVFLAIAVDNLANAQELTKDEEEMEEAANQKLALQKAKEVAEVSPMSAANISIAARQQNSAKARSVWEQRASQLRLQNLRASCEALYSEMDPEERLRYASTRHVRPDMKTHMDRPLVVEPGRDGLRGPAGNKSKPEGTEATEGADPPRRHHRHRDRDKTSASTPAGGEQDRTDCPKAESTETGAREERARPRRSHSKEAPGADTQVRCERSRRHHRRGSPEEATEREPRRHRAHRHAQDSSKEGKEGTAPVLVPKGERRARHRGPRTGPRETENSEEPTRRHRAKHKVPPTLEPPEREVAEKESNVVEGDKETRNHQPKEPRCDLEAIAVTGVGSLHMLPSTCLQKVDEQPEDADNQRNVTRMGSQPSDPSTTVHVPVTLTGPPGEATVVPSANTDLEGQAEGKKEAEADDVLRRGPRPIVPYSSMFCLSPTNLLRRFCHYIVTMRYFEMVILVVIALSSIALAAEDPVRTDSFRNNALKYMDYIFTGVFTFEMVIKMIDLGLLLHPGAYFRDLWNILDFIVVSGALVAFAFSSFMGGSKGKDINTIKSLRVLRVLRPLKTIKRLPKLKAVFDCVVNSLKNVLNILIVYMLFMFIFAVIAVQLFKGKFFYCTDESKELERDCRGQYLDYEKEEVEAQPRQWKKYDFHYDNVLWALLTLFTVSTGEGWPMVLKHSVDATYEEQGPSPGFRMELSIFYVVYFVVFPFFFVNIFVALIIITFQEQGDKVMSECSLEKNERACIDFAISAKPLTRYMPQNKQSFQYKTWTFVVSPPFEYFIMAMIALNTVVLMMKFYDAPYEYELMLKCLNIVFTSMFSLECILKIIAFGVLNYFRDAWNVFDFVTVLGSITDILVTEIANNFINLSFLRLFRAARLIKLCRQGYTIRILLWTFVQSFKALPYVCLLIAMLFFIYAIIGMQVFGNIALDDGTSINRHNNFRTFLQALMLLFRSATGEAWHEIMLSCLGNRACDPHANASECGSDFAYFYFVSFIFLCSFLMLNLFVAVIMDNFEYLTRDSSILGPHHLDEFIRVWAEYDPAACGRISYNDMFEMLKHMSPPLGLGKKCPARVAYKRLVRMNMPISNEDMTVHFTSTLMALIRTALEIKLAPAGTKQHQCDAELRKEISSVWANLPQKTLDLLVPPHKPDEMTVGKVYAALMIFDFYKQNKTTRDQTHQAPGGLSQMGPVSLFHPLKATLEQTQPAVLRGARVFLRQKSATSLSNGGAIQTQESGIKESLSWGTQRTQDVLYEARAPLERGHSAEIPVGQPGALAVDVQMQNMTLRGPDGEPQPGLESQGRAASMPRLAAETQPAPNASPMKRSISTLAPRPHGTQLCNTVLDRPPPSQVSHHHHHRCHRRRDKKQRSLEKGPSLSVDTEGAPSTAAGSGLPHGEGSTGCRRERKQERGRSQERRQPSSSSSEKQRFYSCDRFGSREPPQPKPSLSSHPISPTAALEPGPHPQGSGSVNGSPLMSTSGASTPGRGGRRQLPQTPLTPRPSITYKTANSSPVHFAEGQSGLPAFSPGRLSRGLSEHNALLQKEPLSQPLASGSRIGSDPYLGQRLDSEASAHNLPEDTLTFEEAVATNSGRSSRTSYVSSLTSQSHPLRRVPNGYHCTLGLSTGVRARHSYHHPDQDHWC
T1 sequence (P54290 25-944 partner limits assumed): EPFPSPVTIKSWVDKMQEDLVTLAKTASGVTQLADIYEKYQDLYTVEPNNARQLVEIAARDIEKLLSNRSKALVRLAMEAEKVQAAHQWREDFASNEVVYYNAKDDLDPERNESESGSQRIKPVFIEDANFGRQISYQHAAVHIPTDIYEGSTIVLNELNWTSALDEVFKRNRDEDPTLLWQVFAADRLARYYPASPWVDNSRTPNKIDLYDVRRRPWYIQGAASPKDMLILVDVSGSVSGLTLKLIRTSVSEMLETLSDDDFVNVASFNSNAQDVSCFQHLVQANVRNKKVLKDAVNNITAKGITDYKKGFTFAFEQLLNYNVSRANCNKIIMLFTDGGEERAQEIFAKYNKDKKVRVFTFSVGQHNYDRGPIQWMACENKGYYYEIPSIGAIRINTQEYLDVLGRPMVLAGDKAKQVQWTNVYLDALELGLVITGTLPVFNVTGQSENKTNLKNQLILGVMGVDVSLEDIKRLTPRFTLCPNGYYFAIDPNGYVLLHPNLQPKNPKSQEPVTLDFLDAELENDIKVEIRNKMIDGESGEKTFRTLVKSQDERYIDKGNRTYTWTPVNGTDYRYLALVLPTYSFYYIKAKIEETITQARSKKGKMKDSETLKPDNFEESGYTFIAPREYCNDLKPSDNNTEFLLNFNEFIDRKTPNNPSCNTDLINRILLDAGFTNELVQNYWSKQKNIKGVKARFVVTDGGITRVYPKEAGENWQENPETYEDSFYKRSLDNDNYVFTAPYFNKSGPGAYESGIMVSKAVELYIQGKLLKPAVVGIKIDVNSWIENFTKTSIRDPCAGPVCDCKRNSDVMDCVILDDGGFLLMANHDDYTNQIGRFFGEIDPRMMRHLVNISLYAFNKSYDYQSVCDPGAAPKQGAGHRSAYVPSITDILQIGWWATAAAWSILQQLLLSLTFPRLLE
T1 sequence (P54290 945-1091 partner limits assumed): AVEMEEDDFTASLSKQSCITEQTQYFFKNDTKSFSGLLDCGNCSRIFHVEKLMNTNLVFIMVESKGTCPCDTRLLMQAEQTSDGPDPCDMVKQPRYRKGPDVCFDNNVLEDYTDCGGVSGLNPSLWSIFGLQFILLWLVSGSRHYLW
T1 sequence (P54283 whole entry partner): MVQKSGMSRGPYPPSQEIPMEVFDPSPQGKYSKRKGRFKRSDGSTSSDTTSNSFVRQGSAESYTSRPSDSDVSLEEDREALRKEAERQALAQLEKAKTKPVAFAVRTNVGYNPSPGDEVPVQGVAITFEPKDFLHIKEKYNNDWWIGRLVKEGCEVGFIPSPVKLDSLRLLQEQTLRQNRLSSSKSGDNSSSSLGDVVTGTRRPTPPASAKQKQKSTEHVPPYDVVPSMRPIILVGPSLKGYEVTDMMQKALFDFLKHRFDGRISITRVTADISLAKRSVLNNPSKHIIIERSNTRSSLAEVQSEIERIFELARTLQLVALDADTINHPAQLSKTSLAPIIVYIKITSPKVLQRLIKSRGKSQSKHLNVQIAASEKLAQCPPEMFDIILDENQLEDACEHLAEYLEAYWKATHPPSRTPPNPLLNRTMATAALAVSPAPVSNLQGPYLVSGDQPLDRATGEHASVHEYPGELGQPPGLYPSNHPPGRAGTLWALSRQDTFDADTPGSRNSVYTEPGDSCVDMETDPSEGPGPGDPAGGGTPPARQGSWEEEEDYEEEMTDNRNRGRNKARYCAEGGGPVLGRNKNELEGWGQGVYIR
From the text: (§1) Normalized dose-response curves were fit (Sigmaplot 4.0, SPSS Inc., Chicago, Ill.) by the Hill equation to determine IC50 values. Steady-state inactivation curves were plotted as the normalized test pulse amplitude following 5 s inactivating prepulses at +10 mV increments. Inactivation curves were fit (Sigmaplot 4.0) with the Boltzman equation, Ipeak (normalized)=1/(1+exp((V-Vh)z/25.6)), where V and Vh are the conditioning and half inactivation potentials, respectively, and z is the slope factor.
The methods of Example 11 were followed with slight modifications as will be apparent from the description below.
N-type calcium channel blocking activity was assayed in human embryonic kidney cells, HEK 293, stably transfected with the rat brain N-type calcium channel subunits (α1B+α2δ+β1b cDNA subunits). Briefly, cells were cultured in Dulbecco's modified eagle medium (DMEM) supplemented with 10% fetal bovine serum, 200 U/ml penicillin and 0.2 mg/ml streptomycin at 37° C. with 5% CO2. At 85% confluency, cells were split with 0.25% trypsin/1 mM EDTA and plated at 10% confluency on glass coverslips. At 12 hours the medium was. replaced and the cells transfected using a standard calcium phosphate protocol and the appropriate calcium channel cDNAs. Fresh DMEM was supplied and the cells transferred to 28° C./5% CO2. Cells were incubated for 1 to 2 days to whole cell recording.
Whole cell patch clamp experiments were performed using an Axopatch 200B amplifier (Axon Instruments, Burlingame, Calif.) linked to a personal computer equipped with pCLAMP software. The external and internal recording solutions contained, respectively, 5 mM BaCl2, 10 mM MgCl2, 10 mM HEPES, 40 mM TEACl, 10 mM glucose, 87.5 mM CsCl (pH 7.2) and 108 mM CsMS, 4 mM MgCl2, 9 mM EGTA, 9 mM HEPES (pH 7.2). Currents were typically elicited from a holding potential of −80 mV to +10 mV using Clampex software (Axon Instruments). Typically, currents were first elicited with low frequency stimulation (0.067 Hz) and allowed to stabilize prior to application of the compounds. The compounds were then applied during the low frequency pulse trains for two to three minutes to assess tonic block, and subsequently the pulse frequency was increased to 0.2 Hz to assess frequency dependent block. Data were analyzed using Clampfit (Axon Instruments) and SigmaPlot 4.0 (Jandel Scientific).

[3] = target: T2, L-type channels (α1C+α2δ+β1b cDNA subunits) (Homo sapiens, UniProt Q13936); test: Selectivity for N-type over L-type channels, whole cell patch recordings in HEK 293 cells; format: cell-based
T2 construct: expressed in transfected cells; host or cells: HEK 293 (human embryonic kidney cells)
Protocol: (§2) Calcium channel blocking activity was measured using whole cell patch recordings on human embryonic kidney cells transiently expressing rat α1B+α2δ+β1b channels (N-type channels) with 5 mM barium as a charge carrier. Channel block was also measured in P/Q-type channels (α1A+α2δ+β1b cDNA subunits) and L-type channels (α1C+α2δ+β1b cDNA subunits).
(§3) HEK 293 Host cells (ATCC# CRL 1573) were grown in standard DMEM medium supplemented with 2 mM glutamine and 10% fetal bovine serum. HEK 293 cells were transfected by a standard calcium-phosphate-DNA coprecipitation method using the rat α1B+β1b+α2δ N-type calcium channel subunits in a vertebrate expression vector (for example, see Current Protocols in Molecular Biology).
(§4) After an incubation period of 24 to 72 hours, the culture medium was removed and replaced with external recording solution (see below). Whole cell patch clamp experiments were performed using an Axopatch 200B amplifier (Axon Instruments, Burlingame, Calif.) linked to an IBM compatible personal computer equipped with pCLAMP software. Borosilicate glass patch pipettes (Sutter Instrument Co., Novato, Calif.) were polished (Microforge, Narishige, Japan) to a resistance of about 4 MΩ when filled with cesium methanesulfonate internal solution (composition in MM: 109 CsCH3 SO4, 4 MgCl2, 9 EGTA, 9 HEPES, pH 7.2). Cells were bathed in 5 mM Ba^++ (in mM: 5 BaCl2, 1 MgCl2, 10 HEPES, 40 tetraethylammonium chloride, 10 glucose, 87.5 CsCl pH 7.2). Current data shown were elicited by a train of 100 ms test pulses at 0.066 Hz from −100 mV and/or −80 mV to various potentials (min. −20 mV, max. +30 mV). Drugs were perfused directly into the vicinity of the cells, using a microperfusion system.
as §1
(§5) The same protocol was followed for cell lines expressing P/Q-type channels and L-type channels.

[4] = target: T3, human α1G T-type channels (Homo sapiens, UniProt O43497); test: Block of α1G T-type channels, whole-cell patch clamp in HEK cells; format: cell-based; details: test pulse −40 mV
T3 construct: expressed in transfected cells
Protocol: Standard patch-clamp techniques were employed to identify blockers of T-type currents. Briefly, previously described HEK cell lines stably expressing human α1G T-type channels were used for all the recordings (passage #: 4-20, 37° C., 5% CO2). To obtain T-type currents, plastic dishes containing semi-confluent cells were positioned on the stage of a ZEISS AXIOVERT S100 microscope after replacing the culture medium with external solution (Table 3). Whole-cell patches were obtained using pipettes (borosilicate glass with filament, O.D.: 1.5 mm, I.D.: 0.86 mm, 10 cm length), fabricated on a SUTTER P-97 puller with resistance values of ˜5 MΩ (Table 4 ).
T-type currents were reliably obtained by using two voltage protocols: “non-inactivating”, and “inactivation”. In the non-inactivating protocol, the holding potential is set at −110 mV and with a pre-pulse at −100 mV for 1 second prior to the test pulse at −40 mV for 50 ms. In the inactivation protocol, the pre-pulse is at approximately −85 mV for 1 second, which inactivates about ^15% of the T-type channels.
Test compounds were dissolved in external solution, 0.1-0.01% DMSO. After ˜10 min rest, they were applied by gravity close to the cell using a WPI microfil tubing. The “non-inactivated” pre-pulse was used to examine the resting block of a compound. The “inactivated” protocol was employed to study voltage-dependent block. However, the initial data shown below were mainly obtained using the non-inactivated protocol only. IC50 values are shown for various compounds of the invention in Table 5.

[5] = target: T4, P/Q-type channels (α1A+α2δ+β1b cDNA subunits) (Homo sapiens, UniProt O00555); test: Selectivity for N-type over P/Q-type channels, whole cell patch recordings in HEK 293 cells; format: cell-based
T4 construct: expressed in transfected cells; host or cells: HEK 293 (human embryonic kidney cells)
Protocol: as §2, §3, §4, §1, §5

[6] = system: T-type over L-type channels; details: cited from earlier work
[7] = frequency dependent block, pulse frequency 0.2 Hz, read-out: IC50 at 0.2 Hz
[8] = tonic block, low frequency stimulation 0.067 Hz, read-out: IC50 at 0.067 Hz
[9] = −80 mV (inactivation protocol), read-out: IC50 at −80 mV
[10] = −100 mV (non-inactivating protocol), read-out: IC50 at −100 mV

Compound | Maximum Possible Effect ± SEM, Phase I [1] | Maximum Possible Effect ± SEM, Phase II [1] | Maximum Possible Effect ± SEM, Phase IIA [1] | pIC50 [2, 7] | pIC50 [2, 8] | selectivity for N-type over L-type channels [3] | pIC50 [4, 9] | pIC50 [4, 10] | selectivity for N-type over P/Q-type channels [5] | selective for T-type over L-type channels [6]
COc1c(C(C)(C)C)cc(C(=O)N(C)[C@H]2CCN(C(=O)CCCCC(c3ccc(F)cc3)c3ccc(F)cc3)C2)cc1C(C)(C)C [Compound P4, (S)-N-{1-[6,6-Bis-(4-fluoro-phenyl)-hexanoyl]-pyrrolidin-3-yl}-3,5-di-tert-butyl-4-methoxy-N-methyl-benzamide] | 50 ± 10% | 51 ± 10% | 42 ± 13% | 7.21 | 7.03 | greater than 5000 fold | 6.41 | 6.64 | approximately 12 fold | 
(S)-6,6-Bis-(4-fluoro-phenyl)-hexanoic acid[1-(3,5-di-tert-butyl-4-methoxy-benzoyl)-pyrrolidin-3-yl]-methyl-amide [Compound P5] | 88 ± 13% | 62 ± 4% | 47 ± 5% | 7.54 | 7.35 | greater than 2000 fold | 7.89 | 7.14 | approximately 31 fold | 
COCC(=O)O[C@]1(CCN(C)CCCc2nc3ccccc3[nH]2)CCc2cc(F)ccc2[C@@H]1C(C)C [Mibefradil] |  |  |  |  |  |  |  |  |  | 10-30 fold
(R)-6,6-Bis-(4-fluoro-phenyl)-hexanoic acid[1-(3,5-di-tert-butyl-4-methoxy-benzoyl)-pyrrolidin-3-yl]-methyl-amide [Compound P2] | 70 ± 8% | 82 ± 9% | 71 ± 12% | 7.49 | 7.17 | greater than 1000 fold | 7.29 | 6.93 | approximately 9 fold | 
COc1c(C(C)(C)C)cc(C(=O)N(C)[C@@H]2CCN(C(=O)CCCCC(c3ccc(F)cc3)c3ccc(F)cc3)C2)cc1C(C)(C)C [Compound P1, (R)—N-{1-[6,6-Bis-(4-fluoro-phenyl)-hexanoyl]-pyrrolidin-3-yl}-3,5-di-tert-butyl-4-methoxy-N-methyl-benzamide] | 94 ± 11% | 79 ± 14% | 72 ± 16% | 7.04 | 6.92 | ~75 fold | 8.10 |  | approximately 23 fold | 
